Reference: patent US20230390315A1, “COMPOSITIONS AND METHODS FOR TREATING ISCHEMIC CONDITIONS” (The Regents of the University of California, priority 2020, published 2023)

What was measured:
[1] = test system: dermal microvascular endothelial cells (hDMVECs); assay: hDMVEC proliferation assay; format: cell-based, human
Protocol: Proliferation assays with BCECs and BRECs were performed. Log-phase growing BCECs or BRECs (passage <10) were trypsinized, re-suspended and seeded in 96-well plates (no coating) in low-glucose DMEM supplemented with 10% bovine calf serum, 2 mM glutamine, and antibiotics (growth medium), at a density of 1200-1500 cells per well in 200 μl volume. All reagents were added at the indicated final concentrations. After 3-6 days, cells were incubated with AlamarBlue for 4 hrs. Fluorescence was measured at 530 nm excitation wavelength and 590 nm emission wavelength. The experiments were repeated at least three times. To create a hypoxic condition, cells were placed in a hypoxia incubator with a mixture of gas consisting of 1% 02, 5% CO2 and 94% Nz. On each 96-well plate, untreated and VEGF-treated (10/ng/ml) wells were included to monitor plate-to-plate variations. 20% methanol or 0.05% DMSO served as negative controls. 0.05% DMSO served as negative controls when Cas was tested in these cells. Human RMVECs and human adult DMVECs were split into Gelatin-coated 96 wells (2000 cells per well) in low glucose DMEM containing 10% FBS. 1200 cells/well was set up for proliferation assay in low glucose media containing FBS. Data was collected at day 4 or 5. HUVEC (p7-10) were grown on gelatin-coated plate until it reached 70-80% confluency.
(§1) Proliferation assays with fibroblasts were done in low-glucose DMEM containing 1% FBS, with or without 10 ng/ml bFGF, or 100 ng/ml human EGF and the assay was ended at day 3. ARPE-19 cells were gently lifted with 0.025% trypsin and plated in RtEGM media (Clonetics) containing 2% FBS, L-glutamine, human bFGF and GA-1000. Once cells were attached to plates, serum-free RtEGM media was used to maintain the cultures. For proliferation assays, 1500 human RPE cells were plated into 96-well plates in low-glucose DMEM containing 1% FBS. […] Four days later, tumor cell growth was measured by the MTS assay (Promega, Madison, WI), a colorimetric assay that measures metabolic activity of viable cells. […]

[2] = test system: αv integrin, Neuropilin-1, VE-cadherin and bFGFR1; assay: Protein mass of other N-glycosylated proteins in BCEC; format: cell-based, bovine
Protocol: Cells were allowed to reach 80% confluency in 12-well plates. […] At various time points, plates were taken out of the incubator and kept on ice. Cell monolayers were first washed once with ice-cold PBS before lysis with 250 μl of Pierce RIPA buffer (ThermoFisher Scientific, Rockford, IL) or use 50 mM Tris-HCl (pH 7.6), 150 mM NaCl, 10% Glycerol, 1% NP-40 containing protease/Phosphatase inhibitor cocktail (100×) (Cell signaling, #5872). Lysates were collected and mixed with 4×Bolt LDS Sample Buffer (Novex, Carlsbad, CA) in the presence of Halt protease inhibitors and phosphatase inhibitor cocktail (ThermoFisher scientific, #NP0007). The samples were subjected to SDS-PAGE (Bolt 4-12% Bis-Tris Plus, Invitrogen) using Bolt MES SDS running buffer or NuPAGE 3-8% Tris-Acetate gel using Tris-Acetate SDS running buffer (Novex). HUVECs (passage 6-8) were plated in EBM-2 basal medium (Lonza) with 0.2% FBS. […] Equal amounts of protein lysates were analyzed by SDS-PAGE and blotted with the indicated antibodies. Proteins were transferred using Tris-Glycine buffer with 20% Methanol (Proteonomics grade) (Apex BioResearch Products). Membranes were first incubated with 5% milk in TBST, pH 7.6 (TEKnova, Hollister, CA), followed by blotting with primary and secondary antibodies. […]

α-glucosidase = α-glucosidase activity assay; format: biochemical, Saccharomyces cerevisiae; conditions: up to 2 mM
Protocol: a-mannosidase activity was measured using substrate p-nitrophenyl α-mannopyranoside (1 mM). Enzyme from Jack Bean ([…]) (final concentration of 0.077 U) was incubated at 37° C. in a final volume of 50 μl of 50 mM potassium phosphate buffer, pH 7.5. α-glucosidase was assayed with substrate p-nitrophenyl α-glucoside (7 mM). Enzyme from Saccharomyces cerevisiae-type 1 (Sigma, G5003) (final concentration of 0.1 U) was incubated at 37° C. in a final volume of 50 μl of PBS, pH 7.5. β-Glucosidase was assayed with substrate 4-nitrophenyl β-D-glucopyranoside (Roche). Enzyme from almond (Sigma, G0395) (final concentration of 0.002 U) was incubated at 37° C. in a final volume of 50 μl of PBS, pH 7.5 containing 1% SDS. The incubation was stopped by addition of an equal volume of acid-based stop solution (R&D systems, 895032). Enzymatic activity was measured at 405 nm. α-glucosidase from Saccharomyces cerevisiae type I ([…]) with p-nitrophenyl α-D-glucopyranoside (Sigma, N1377) as the substrate.

[3] = Cellular uptake of ManN in BCECs; format: in vitro ADME, bovine
4T1 cells = assay: 4T1 proliferation assay (MTS); format: cell-based, mouse
AML12 liver cells = assay: AML12 proliferation assay; format: cell-based, mouse
Protocol: as §1, with “FBS. A673, U87MG, Calu6 and AML12 cells were grown until confluent and were then harvested and re-suspended in appropriate assay media. For proliferation assays, cells were plated at the density of 1000-2000 cells/well in low-glucose DMEM containing 5% FBS or otherwise stated. Bovine pituitary cells (pituitary folliculostellate cells) were isolated as previously described. For proliferation assays with human epidermal keratinocytes, human DMVECs and human dermal fibroblast cells, 1000 cells/well were plated in low-glucose DMEM containing 1% FBS with or without various growth factors. The assay was ended at day 3 for bovine pituitary cells and at day 4 for all the other cell types.” for “FBS.”

bovine pituitary cells = assay: Bovine pituitary cell proliferation assay; format: cell-based; conditions: alone or in combination with growth factors
Protocol: as §1, with “FBS. A673, U87MG, Calu6 and AML12 cells were grown until confluent and were then harvested and re-suspended in appropriate assay media. For proliferation assays, cells were plated at the density of 1000-2000 cells/well in low-glucose DMEM containing 5% FBS or otherwise stated. Bovine pituitary cells (pituitary folliculostellate cells) were isolated as previously described. For proliferation assays with human epidermal keratinocytes, human DMVECs and human dermal fibroblast cells, 1000 cells/well were plated in low-glucose DMEM containing 1% FBS with or without various growth factors. The assay was ended at day 3 for bovine pituitary cells and at day 4 for all the other cell types.” for “FBS.”

human dermal fibroblasts = assay: Human dermal fibroblast proliferation assay; format: cell-based; conditions: alone or in combination with growth factors
Protocol: as §1, with “FBS. A673, U87MG, Calu6 and AML12 cells were grown until confluent and were then harvested and re-suspended in appropriate assay media. For proliferation assays, cells were plated at the density of 1000-2000 cells/well in low-glucose DMEM containing 5% FBS or otherwise stated. Bovine pituitary cells (pituitary folliculostellate cells) were isolated as previously described. For proliferation assays with human epidermal keratinocytes, human DMVECs and human dermal fibroblast cells, 1000 cells/well were plated in low-glucose DMEM containing 1% FBS with or without various growth factors. The assay was ended at day 3 for bovine pituitary cells and at day 4 for all the other cell types.” for “FBS.”

human keratinocytes = assay: Human keratinocyte proliferation assay; format: cell-based
Protocol: as §1, with “FBS. A673, U87MG, Calu6 and AML12 cells were grown until confluent and were then harvested and re-suspended in appropriate assay media. For proliferation assays, cells were plated at the density of 1000-2000 cells/well in low-glucose DMEM containing 5% FBS or otherwise stated. Bovine pituitary cells (pituitary folliculostellate cells) were isolated as previously described. For proliferation assays with human epidermal keratinocytes, human DMVECs and human dermal fibroblast cells, 1000 cells/well were plated in low-glucose DMEM containing 1% FBS with or without various growth factors. The assay was ended at day 3 for bovine pituitary cells and at day 4 for all the other cell types.” for “FBS.”

[4] = alone or in combination with growth factors

SMILES: N[C@H](C=O)[C@@H](O)[C@H](O)[C@H](O)CO [ManN, 2-Amino-2-deoxy-D-mannose]
- hDMVECs growth ([1]; ManN by itself): stimulated
- additivity with VEGF on proliferation ([1]; hDMVECs): dose-dependent additivity with VEGF
- toxicity ([1]; hDMVECs, at 5 mM): minimal toxicity
- protein mass of other N-glycosylated receptors/adhesion molecules [2]: affected as well
- effect on α-glucosidase (α-glucosidase): No effect
- cell entry and accumulation [3]: entered and accumulated inside the cells in a concentration-dependent manner
- ManN detected in 1 mg cell lysate ([3]; 400 uM ManN for 2 hours): 0.66 nmol
- growth of 4T1 (4T1 cells): did not promote growth
- toxicity on 4T1 cells (4T1 cells; at 5 mM): significant toxicity
- cellular toxicity, sensitivity among cell types (AML12 liver cells; 5 mM level of ManN): most sensitive
- proliferation of AML12 (AML12 liver cells; [4]): no increases in proliferation
- proliferation of bovine pituitary cells (bovine pituitary cells): no increases in proliferation
- proliferation of human dermal fibroblasts (human dermal fibroblasts): no increases in proliferation
- cellular toxicity, sensitivity among cell types (human keratinocytes; 5 mM level of ManN): least sensitive
- proliferation of human keratinocytes (human keratinocytes; [4]): no increases in proliferation
